Test results taken from EP2601952A1, “Novel pharmaceutically acceptable salts and cocrystals of 5-chloro-3-(4-methanesulfonylphenyl)-6'-methyl-[2,3']bipyridinyl and their therapeutic uses” (Zentiva, k.s., priority 2011, dated 2013).

Tests used:
[1] = DVS isotherm (hygroscopicity, hydrate formation); type: physicochemical; conditions: for hygroscopicity: DVS isotherm plot (Figure 4 / Figure 11)
[2] = Polymorphic stability: maturation / slurrying of the salts in various solvents; type: physicochemical
Description: Example 6: Method for assessing polymorphic stability of the succinic acid salt and Form A of the fumaric acid salt of 5-chloro-3-(4-methanesulfonylphenyl)-6'-methyl-[2,3']bipyridinyl.
Approximately 50-100 mg of the salts under investigation were suspended in 1ml of water, ethanol, 1-propanol, 2-propanol, 1-butanol, 2-butanol, tert-butanol, 1-pentanol, acetone, methyl ethyl ketone, isobutyl methyl ketone, ethyl formate, methyl acetate, ethyl acetate, propyl acetate, isopropyl acetate, butyl acetate, isobutyl acetate, tetrahydrofuran, 1,4-dioxane, toluene, acetonitrile and N-methyl pyrrolidine. […] The excess solvent was removed and the samples evaporated to dryness in a vacuum oven at 25 °C.

[3] = anhydrous crystalline forms I, II, III, IV and V; Journal of Pharmaceutical Sciences, 95, 1, 56-69 (2006); cited from earlier work

Row | hygroscopicity [1] | polymorphic conversion on slurrying ([2]; slurrying in an aliphatic alcohol or cyclic ether) | stability with respect to hydrate formation ([1]; DVS isotherm plot, Figure 4) | polymorphic changes when maturated in various solvents ([2]; Example 6: suspended in 1 ml of solvent, agitated at 25°C for 35 days) | Compound | instability of anhydrous crystalline forms [3]
1 | relatively non-hygroscopic | Form B can be generated | – | – | Cc1ccc(-c2ncc(Cl)cc2-c2ccc(S(C)(=O)=O)cc2)cn1.O=C(O)/C=C/C(=O)O [Form A of the fumaric acid salt, fumaric acid salt of 5-chloro-3-(4-methanesulfonylphenyl)-6'-methyl-[2,3']bipyridinyl] | –
2 | – | – | – | – | Cc1ccc(-c2ncc(Cl)cc2-c2ccc(S(C)(=O)=O)cc2)cn1 [etoricoxib, 5-Chloro-3-(4-methanesulfonylphenyl)-6'-methyl-[2,3']bipyridinyl] | convert to hemihydrate
3 | relatively non-hygroscopic | – | stable with respect to hydrate formation | lack of observed polymorphic changes | Cc1ccc(-c2ncc(Cl)cc2-c2ccc(S(C)(=O)=O)cc2)cn1.O=C(O)CCC(=O)O [succinic acid salt, succinic acid salt of 5-chloro-3-(4-methanesulfonylphenyl)-6'-methyl-[2,3']bipyridinyl] | –
